Measured values taken from US20020106348A1, “Cancer therapeutics involving the administration of 2-methoxyestradiol and an agent that increases intracellular superoxide anion” (priority 2000, published 2002).
Counter-ions that a name gives are not always drawn. Like-named read-outs stand apart in the source and are kept apart here.

Experiments:
HL-60 = experiment: Apoptosis / nucleosomal DNA fragmentation in HL-60 cells; format: cell-based, human; conditions: for DNA fragmentation (apoptosis) in HL-60 cells: estrogen derivatives, FIG. 20; for effect on 2-ME-induced apoptosis: HL-60, 1 μM 2-ME plus antioxidant
CuZnSOD = experiment: Inhibition of CuZnSOD by estrogen derivatives; format: biochemical; conditions: FIG. 20
[1] = cited from earlier work; for elimination half-life: intravenous
CLL cells [2] = experiment: Cellular O2^- by hydroethidine flow cytometry, CLL cells; format: cell-based, human; conditions: addition of NAC to 2-ME-treated CLL cells
Procedure: The method using hydroethidine to detect O2^− in tissue sections was adapted for quantitation of intracellular O2^− by flow cytometry analysis. This assay is based on the unique chemical properties of hydroethidine, a weak blue fluorescent dye which is selectively converted by O2^− to ethidium with a bright red fluorescence. The control and drug-treated cells (1.5×10^6/sample) were incubated with hydroethidine (20 ng/ml) for 60 min, washed twice with 3 ml PBS, resuspended in 2 ml PBS, and then analyzed within 1 h by flow cytometry, using the red laser channel.

CLL cells [3] = conditions: for protection from toxic effect of 2-ME: antioxidant added to 2-ME-treated CLL cells
[4] = test system: leukemia cells from a CML (chronic myelogenous leukemia) patient in relapsed blast crisis; experiment: Induction of apoptosis in primary leukemia cells from a CML patient; format: cell-based, human; conditions: in vitro
HL-60 cells = experiment: Cellular O2^- by flow cytometry, HL-60 cells; format: cell-based, human; conditions: 0.25 μM
[5] = biological target: NADH:ubiquinone oxidoreductase; phorbol ester-induced ornithine decarboxylase (ODC); conditions: Fang et al, 1998; read-out: IC50 values, NADH:ubiquinone oxidoreductase inhibition / blocking ODC induction; cited from earlier work
c-myc protein = c-myc protein expression in B CLL cells; format: cell-based, human; conditions: Rituxan alone

C[C@]12CC[C@@H]3c4cc(O)c(O)cc4CC[C@H]3[C@@H]1CC[C@@H]2O [2-hydroxyestradiol]
DNA fragmentation (apoptosis) in HL-60 cells (HL-60): induced DNA fragmentation
inhibition of SOD activity (CuZnSOD): substantially inhibited SOD activity

COc1cc2c(cc1O)CC[C@@H]1[C@@H]2CC[C@]2(C)C(=O)CC[C@@H]12 [2-methoxyestrone]
DNA fragmentation (apoptosis) in HL-60 cells (HL-60): induced DNA fragmentation
inhibition of SOD activity (CuZnSOD): substantially inhibited SOD activity

C[C@]12CC[C@@H]3c4ccc(O)cc4CC[C@H]3[C@@H]1CC[C@@H]2O [17β-estradiol]
DNA fragmentation (apoptosis) in HL-60 cells (HL-60): little DNA fragmentation
inhibition of SOD activity (CuZnSOD): minimal activity against SOD

COc1cccc2c1C(=O)c1c(O)c3c(c(O)c1C2=O)C[C@@](O)(C(C)=O)C[C@@H]3O[C@H]1C[C@H](N)[C@H](O)[C@H](C)O1 [Daunorubicin, 5,12-Naphthacenedione, (8S-cis)-8-acetyl-10-[(3-amino-2,3,6-trideoxy-α-L-lyxo-hexanopyranosyl)oxy]-7,8,9,10-tetrahydro-6,8,11-trihydroxy-10-methoxy-, hydrochloride]
secreted into the bile ([1]; in vivo): ~40%
elimination half-life [1]: about 19 hr

COc1cccc2c1C(=O)c1c(O)c3c(c(O)c1C2=O)C[C@@](O)(C(=O)CO)C[C@@H]3O[C@H]1C[C@H](N)[C@H](O)[C@H](C)O1 [Doxorubicin, 5,12-Naphthacenedione, (8s-cis)-10-[(3-amino-2,3,6-trideoxy-α-L-lyxo-hexopyranosyl)oxy]-7,8,9,10-tetrahydro-6,8,1-trihydroxy-8-(hydroxyacetyl)-1-methoxy-hydrochloride]
elimination half-life [1]: about 30 hr

CC(=O)N[C@@H](CS)C(=O)O [N-acetylcysteine, reference compound]
effect on 2-ME-induced apoptosis (HL-60): 2-ME-induced apoptosis was significantly reduced
cellular O2^− in 2-ME-treated cells (CLL cells [2]): reduced the accumulation of cellular O2^−
protection from toxic effect of 2-ME (CLL cells [3]): protective effect
protection from toxic effect of 2-ME (CLL cells [3]; listed as NAC): protected the cells from the toxic effect of 2-ME

Nc1c(Br)cc(Br)cc1CN[C@H]1CC[C@H](O)CC1 [ambroxol]
effect on 2-ME-induced apoptosis (HL-60): 2-ME-induced apoptosis was significantly reduced

Nc1ccn([C@@H]2O[C@H](CO)[C@@H](O)[C@@H]2O)c(=O)n1 [ara-C, reference compound]
apoptosis in primary CML cells [4]: resistant

COc1cccc2c1C(=O)c1c(O)c3c(c(O)c1C2=O)C[C@@](O)([C@H](C)O)C[C@@H]3O[C@H]1C[C@H](N)[C@H](O)[C@H](C)O1 [daunorubicinol]
elimination half-life [1]: about 27 hr

C=C(C)[C@H]1Cc2c(ccc3c2O[C@@H]2COc4cc(OC)c(OC)cc4[C@@H]2C3=O)O1 [rotenone, reference compound]
cellular O2^− content (HL-60 cells): increase of cellular O2^−
IC50 [5]: 0.8 to 4 nM

Rituxan: antibody specific for CD20 antigen on B lymphocyte
c-myc protein expression (c-myc protein): increased expression of c-myc protein
killing of CLL cells (CLL cells [3]; Rituxan alone, various concentrations): did not result in any significant killing
enhancement of 2-ME activity (CLL cells [3]; cells sensitive or resistant to 2-ME): did not significantly enhance the activity of 2-ME

Sodium Arsenate [reference compound]
sensitivity to single agent (CLL cells [3]; 2-ME-resistant CLL cells): insensitive to either drug alone
sensitivity to single agent (CLL cells [3]; CLL cells of the two sensitive patients): relatively sensitive
